Consider eleven compounds from patent US10336725B2, “Chemical compounds” (AstraZeneca AB, priority 2014, dated 2019).

Counter-ions that a name gives are not always drawn.

The target of the test is T1, Sodium Channel ENaC (Homo sapiens, UniProt P37088+P51168+P51170).
T1 construct: Human primary bronchial epithelial cells differentiated at air-liquid interface (ALI); host or cells: Human primary bronchial epithelial cells differentiated at air-liquid interface
T1 sequence (P37088 1-669): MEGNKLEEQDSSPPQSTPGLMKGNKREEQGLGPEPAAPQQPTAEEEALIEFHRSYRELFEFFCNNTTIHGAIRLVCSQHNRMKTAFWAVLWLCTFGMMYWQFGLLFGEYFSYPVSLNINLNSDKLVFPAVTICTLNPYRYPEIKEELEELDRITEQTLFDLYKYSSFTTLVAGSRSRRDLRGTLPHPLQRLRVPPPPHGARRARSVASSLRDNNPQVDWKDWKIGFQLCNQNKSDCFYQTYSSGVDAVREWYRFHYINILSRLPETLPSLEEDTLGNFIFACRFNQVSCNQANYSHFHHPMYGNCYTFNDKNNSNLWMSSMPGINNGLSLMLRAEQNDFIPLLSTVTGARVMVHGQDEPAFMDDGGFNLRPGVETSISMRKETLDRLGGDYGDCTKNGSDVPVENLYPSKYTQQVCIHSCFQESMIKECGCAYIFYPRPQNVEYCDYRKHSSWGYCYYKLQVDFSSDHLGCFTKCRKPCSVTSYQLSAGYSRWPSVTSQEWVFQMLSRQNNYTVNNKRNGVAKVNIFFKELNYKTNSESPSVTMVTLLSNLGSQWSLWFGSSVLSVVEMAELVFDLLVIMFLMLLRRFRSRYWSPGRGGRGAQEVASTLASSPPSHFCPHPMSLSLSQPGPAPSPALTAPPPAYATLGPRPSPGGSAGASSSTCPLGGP
T1 sequence (P51168 1-640): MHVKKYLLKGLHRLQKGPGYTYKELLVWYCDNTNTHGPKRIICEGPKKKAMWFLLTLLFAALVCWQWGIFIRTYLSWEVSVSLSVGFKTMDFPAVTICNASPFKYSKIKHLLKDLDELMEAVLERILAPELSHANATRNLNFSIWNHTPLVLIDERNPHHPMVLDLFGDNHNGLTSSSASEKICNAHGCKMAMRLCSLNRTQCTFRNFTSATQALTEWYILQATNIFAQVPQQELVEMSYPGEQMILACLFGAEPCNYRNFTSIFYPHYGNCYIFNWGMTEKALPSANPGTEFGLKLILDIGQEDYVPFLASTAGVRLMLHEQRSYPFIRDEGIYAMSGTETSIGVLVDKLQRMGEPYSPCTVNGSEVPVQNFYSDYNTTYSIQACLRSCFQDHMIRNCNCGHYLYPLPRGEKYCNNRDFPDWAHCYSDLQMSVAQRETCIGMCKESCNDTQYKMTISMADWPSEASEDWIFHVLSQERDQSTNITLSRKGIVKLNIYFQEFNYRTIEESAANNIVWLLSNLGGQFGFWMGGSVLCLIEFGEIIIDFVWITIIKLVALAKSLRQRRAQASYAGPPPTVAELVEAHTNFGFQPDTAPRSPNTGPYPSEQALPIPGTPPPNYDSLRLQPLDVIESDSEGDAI
T1 sequence (P51170 1-649): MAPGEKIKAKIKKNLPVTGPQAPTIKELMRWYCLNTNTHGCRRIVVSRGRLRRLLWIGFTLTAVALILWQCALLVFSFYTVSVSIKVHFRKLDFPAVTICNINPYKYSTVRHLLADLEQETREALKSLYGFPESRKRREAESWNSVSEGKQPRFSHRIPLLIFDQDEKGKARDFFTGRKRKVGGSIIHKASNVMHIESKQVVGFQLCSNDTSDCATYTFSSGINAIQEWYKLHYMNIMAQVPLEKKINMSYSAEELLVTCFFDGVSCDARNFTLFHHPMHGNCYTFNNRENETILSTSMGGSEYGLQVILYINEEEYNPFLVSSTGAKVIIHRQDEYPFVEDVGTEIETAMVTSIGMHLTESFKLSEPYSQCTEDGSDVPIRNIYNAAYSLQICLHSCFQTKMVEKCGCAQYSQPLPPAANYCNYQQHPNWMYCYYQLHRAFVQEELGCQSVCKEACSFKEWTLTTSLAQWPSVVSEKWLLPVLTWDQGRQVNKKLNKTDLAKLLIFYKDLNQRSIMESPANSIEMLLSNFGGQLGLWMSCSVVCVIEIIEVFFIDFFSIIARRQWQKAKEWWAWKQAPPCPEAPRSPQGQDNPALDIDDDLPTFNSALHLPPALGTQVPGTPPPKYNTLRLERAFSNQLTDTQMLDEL
As to the kind of experiment: Sodium Channel ENaC Ussing Chamber Test (short circuit current). Format: cell-based. As to conditions: human primary bronchial epithelial cells at air-liquid interface; inhibition of short circuit current; compounds added to the apical side. As for the experimental part: Sodium Channel ENaC Ussing Chamber Test
Human primary bronchial epithelial cells differentiated at air-liquid interface (ALI) on snapwell permeable supports (MatTek Corporation, MA, USA, cat no AIR-100-SNP) were maintained at ALI culture in a humidified incubator at 37° C. and 5% CO2. Basolateral medium (MatTek Corporation, MA, USA cat no AIR-100-MM-ASY) was changed every second day. Mucus or liquid formed on the apical side was gently aspirated every second day to maintain viability and performance of the cells.
The transepithelial voltage between the luminal/apical and basolateral membrane were measured in the ussing chamber consisted of vertical, in-house manufactured ussing chambers, DVC-1000 V/C clamps with preamplifiers (World Precision Instruments), electrode kits (EK1, World Precision Instruments), Power Lab with Chart5 software, water bath with external circulation and carbogen gas distribution and regulation system. Electrodes used in the set up were casted manually using 4% agarose in 0.9% sterile NaCl according to the manufacturer's recommendation.
The ussing chambers were assembled with an empty snapwell membrane (Costar 3407) and electrodes contained in Kreb's buffer (SIGMA-ALDRICH cat no K3753) for one hour at 37° C. in presence of 95% oxygen and 5% carbon dioxide. After this equilibration step the system was compensated for fluid resistance and input offset.
The equilibrated chambers were reassembled with a snapwell containing ALI cells and after 20 minutes stabilisation cumulative doses of the compounds were added to the apical side of the membrane. After the final dose 10 μM Benzamil was added to reach maximum.
All test compounds, including the reference compound, were diluted from 10 mM stocks in 100% DMSO and added to opaque 96-well plates (Greiner, Cat No. 651201). Dilution series of 12 doses were prepared in DMSO, starting with 3 μM followed by 10 times dilution steps.
Chart5 for Windows software was used to measure the value of the short circuit current after each compound addition. The data was transferred into Excel and analysed using IDBS XLfit® 5.2 (ID Business Solutions Ltd). The molar concentration of test or reference compound producing 50% inhibition (curve IC50) was derived by fitting data to a 4-parameter logistic function of the form: y=(A+((B−A)/(1+(((10^C)/x)^D))))
A The bottom plateau of the curve, i.e. the final minimum y value
B The top of the plateau of the curve i.e. the final maximum y value
C The log10 x value at a y value of 50%.
For the compound `Cc1ccccc1C[C@H](CNCC1CCN(C(=O)CCNC[C@H](O)[C@@H](O)[C@H](O)CO)CC1)CNC(=O)c1nc(Cl)c(N)nc1N` [Example 1, 3,5-diamino-6-chloro-N—((R)-2-(2-methylbenzyl)-3-(((1-(3-(((2S,3R,4R)-2,3,4,5-tetrahydroxypentyl)amino)propanoyl)piperidin-4-yl)methyl)amino)propyl)pyrazine-2-carboxamide], half-maximal inhibition (IC50) required 0.316 nM. Turning to `CCCCCCN(CCNC(=O)c1ccc(CNC[C@H](CNC(=O)c2nc(Cl)c(N)nc2N)Cc2ccccc2C)cc1)C[C@H](O)[C@@H](O)[C@H](O)CO` [Example 2, 3,5-diamino-6-chloro-N—((R)-3-((4-((2-(hexyl((2S,3R,4R)-2,3,4,5-tetrahydroxypentyl)amino)ethyl)carbamoyl)benzyl)amino)-2-(2-methylbenzyl)propyl)pyrazine-2-carboxamide], the half-maximal inhibitory concentration (IC50) (commonly the concentration needed to halve the response being measured) was 2.51 nM.

The compound `CCCCCCN(CCNC(=O)N1CCC(CNC[C@H](CNC(=O)c2nc(Cl)c(N)nc2N)Cc2ccccc2C)CC1)C[C@H](O)[C@@H](O)[C@H](O)[C@H](O)CO` [Example 3, 3,5-diamino-6-chloro-N—((R)-3-((1-(2-(hexyl((2S,3R,4R,5R)-2,3,4,5,6-pentahydroxyhexyl)amino)ethylcarbamoyl)piperidin-4-yl)methylamino)-2-(2-methylbenzyl)propyl)pyrazine-2-carboxamide] had an IC50 of 0.0794 nM. `CCCCCCN(CCC(=O)N1CCC(CNC[C@H](CNC(=O)c2nc(Cl)c(N)nc2N)Cc2ccccc2C)CC1)C[C@H](O)[C@@H](O)[C@H](O)[C@H](O)CO` [Example 4, 3,5-diamino-6-chloro-N—((R)-3-((1-(3-(hexyl((2S,3R,4R,5R)-2,3,4,5,6-pentahydroxyhexyl)amino)propanoyl)piperidin-4-yl)methylamino)-2-(2-methylbenzyl)propyl)pyrazine-2-carboxamide] showed an IC50 of 0.631 nM. To `CCCCCCN(CCC(=O)N1CCC(CNC[C@H](CNC(=O)c2nc(Cl)c(N)nc2N)Cc2ccccc2C)CC1)C[C@H](O)[C@@H](O)[C@H](O)CO` [Example 5, 3,5-diamino-6-chloro-N—((R)-3-((1-(3-(hexyl((2S,3R,4R)-2,3,4,5-tetrahydroxypentyl)amino)propanoyl)piperidin-4-yl)methylamino)-2-(2-methylbenzyl)propyl)pyrazine-2-carboxamide] belongs 1 nM; to `CCCCCCN(CCCC(=O)N1CCC(CNC[C@H](CNC(=O)c2nc(Cl)c(N)nc2N)Cc2ccccc2C)CC1)C[C@H](O)[C@@H](O)[C@H](O)[C@H](O)CO` [Example 6, 3,5-diamino-6-chloro-N—((R)-3-((1-(4-(hexyl((2S,3R,4R,5R)-2,3,4,5,6-pentahydroxyhexyl)amino)butanoyl)piperidin-4-yl)methylamino)-2-(2-methylbenzyl)propyl)pyrazine-2-carboxamide], 0.316 nM.

Compound `Cc1ccccc1C[C@H](CNCC1CCN(C(=O)CCNC[C@H](O)[C@@H](O)[C@H](O)[C@H](O)CO)CC1)CNC(=O)c1nc(Cl)c(N)nc1N` [Example 7, 3,5-diamino-6-chloro-N—((R)-2-(2-methylbenzyl)-3-((1-(3-((2S,3R,4R,5R)-2,3,4,5,6-pentahydroxyhexylamino)propanoyl)piperidin-4-yl)methylamino)propyl)pyrazine-2-carboxamide] gave a concentration for half-maximal inhibition (IC50) of 1.26 nM. To `CCCCCCN(CCC(=O)N1CCC(CNC[C@H](CNC(=O)c2nc(Cl)c(N)nc2N)Cc2ccccc2C)CC1)C[C@@H](O)[C@@H](O)[C@H](O)[C@H](O)CO` [Example 8, 3,5-diamino-6-chloro-N—((R)-3-((1-(3-(hexyl((2R,3R,4R,5R)-2,3,4,5,6-pentahydroxyhexyl)amino)propanoyl)piperidin-4-yl)methylamino)-2-(2-methylbenzyl)propyl)pyrazine-2-carboxamide] belongs 0.316 nM. To `CCCCCCN(CCNC(=O)c1ccc(CNC[C@H](CNC(=O)c2nc(Cl)c(N)nc2N)Cc2ccccc2C)cc1)C[C@@H](O)[C@@H](O)[C@H](O)[C@H](O)CO` [Example 9, 3,5-diamino-6-chloro-N—((R)-3-((4-((2-(hexyl((2R,3R,4R,5R)-2,3,4,5,6-pentahydroxyhexyl)amino)ethyl)carbamoyl)benzyl)amino)-2-(2-methylbenzyl)propyl)pyrazine-2-carboxamide Dihydrochloride] belongs 2.51 nM.

As for `CCCCCCN(CCNC(=O)c1ccc(CNC[C@H](CNC(=O)c2nc(Cl)c(N)nc2N)Cc2ccccc2C)cc1)C[C@H](O)[C@@H](O)[C@H](O)[C@H](O)CO` [Example 10, 3,5-diamino-6-chloro-N—((R)-3-((4-((2-(hexyl((2S,3R,4R,5R)-2,3,4,5,6-pentahydroxyhexyl)amino)ethyl)carbamoyl)benzyl)amino)-2-(2-methylbenzyl)propyl)pyrazine-2-carboxamide], half-maximal inhibition (IC50) required 2.51 nM. To `CCCCCCN(CCNC(=O)Oc1ccc(CNC[C@H](CNC(=O)c2nc(Cl)c(N)nc2N)Cc2ccccc2C)cc1)C[C@H](O)[C@@H](O)[C@H](O)[C@H](O)CO` [Example 11, 4-(((R)-3-(3,5-diamino-6-chloropyrazine-2-carboxamido)-2-(2-methylbenzyl)propylamino)methyl)phenyl 2-(hexyl((2S,3R,4R,5R)-2,3,4,5,6-pentahydroxyhexyl)amino)ethylcarbamate] belongs 1.58 nM.
